Values after ≈ are worked out from the molar mass of the structure shown. Numbered stars: 1 amine (or outer) side, 2 acyl side, 3 side chain; on linkers, the order of the positions; unused ones are H or OH. Bridge positions count the residues as written; N and C are the ends. Square brackets hold non-standard residues; d marks the D form. Peptide text beside a SMILES is read from it. * marks the point of attachment. NMeT = CN[CH](C(=O)O)[CH](C)O; X1 = CCCCCCCCCCCC(O)CC(=O)*; X2 = CC=C(N[*:1])C(=O)[*:2]; X3 = OCC1OC(*)C(O)C(O)C1O
Key:
Aeromonas sp. W-10 = assay: Resistance of Aeromonas sp. W-10 to antibacterial agents (physiological characteristics); format: cell-based
From the text: Based upon the physiological characteristics, morphology and the guanine plus cytosine content of isolated DNA, we have classified the organism as a novel member of the genus Aeromonas. We have designated the bacterium Aeromonas sp. W-10, sometimes referred to herein as Aeromonas W-10, and have deposited the microorganism with the United States Department of Agriculture, Northern Utilization Research and Development Division (NRRL), Peoria, Illinois, from whom subcultures are available. The microorganism has been assigned the numerical designation NRRL B-11053. […]. When observed microscopically, Aeromonas sp. W-10 is seen to be a non-spore forming, gram-negative rod approximately 0.5 to 1.0×1.0-1.5 microns. It occurs singly and is motile by means of a single polar flagellum. The organism is facultatively anaerobic, oxidase positive, capable of reducing nitrates to nitrites, insensitive to the vibriostatic compound 2 4-diamino-6,7-diisopropylpteridine (0/129) with a guanine-cytosine content of DNA at 61%. According to Bergy's Manual of Determinative Bacteriology, 8th Edition, the organism is, on the basis of the data set forth, classified as a member of the genus Aeromonas.
The growth and physiological characteristics of Aeromonas sp. All observations were made after seven (7) days of incubation at 28° C. […]

[1] = tested on: Trichophyton mentagrophytes; assay: In vivo topical activity against Trichophyton mentagrophytes skin infection in guinea pigs; details: 1% suspension in polyethylene glycol 400, topical twice daily for ten days from three days after infection
Experimental: The skin of fifteen guinea pigs is abraided and infected with a standard culture of Trichophyton mentagropytes. The infected animals are then separated into three groups containing five animals each. Suspensions containing 1% of the respective antibiotics in polyethylene glycol 400 are prepared. Two of the three groups are treated topically, twice daily for ten days commencing three days after infection. The third group (controls) remained untreated throughout the test. All of the animals are tested for infection by culture and observed for skin lesions for a total of 21 days.

[2] = Toxicity (LD50), oral or subcutaneous administration; format: in vivo
[3] = tested on: Saccharomyces cerevisiae ATCC 9763; assay: Agar diffusion potency assay against standard solution of Antibiotic 20562; format: cell-based
Experimental: Peak Antibiotic W-10 Complex production is determined by periodic sampling of the fermentation mixture and by subjecting the samples to an agar diffusion assay using Saccharomyces cerevisiae ATCC 9763 as the test organism. The broths are assayed against a standard solution of Antibiotic 20562 having an assigned potency of 1000 mcg/mg. The standard solution is diluted with 10% potassium phosphate buffer (pH 6.0) to make solutions having antibiotic concentrations of 3.2, 4.0, 5.0, 6.25 and 7.8 mcg/ml. The assay is performed substantially as set forth in the Federal Register, Title 21, Chapter 436.105.

Candida albicans [4] = assay: In vivo protection (PD50) of mice intravenously infected with Candida albicans; parameters: species or system male CF1 mice; details: single dose one hour after i.v. infection, determined 48 hours after infection
Experimental: The in vivo activity of Antibiotic 20561, Antibiotic 20562 and the Antibiotic W-10 complex are obtained using male CF1 mice (Carworth Famrs) given a single oral or subcutaneous dose one hour after intraveneous infection with sufficient Candida albicans to kill 80% of the infected mice in 48 hours.
PD50 values were determined 48 hours after infection and are as follows: […]

[5] = tested on: Candida albicans (Wisconsin strain); assay: Topical in vivo activity against Candida albicans intravaginal infection in hamsters
Experimental: Using a culture of Candida albicans (Wisconsin strain), in Sabourrauds dextrose broth, infect intravaginally, five groups of six female hamsters. Forty-eight and seventy-two hours after infection, make smears of the infected animals and culture the smears. […] (96 hours after infection), make additional smears, culture and commence treatment. One group of six animals (controls) receives no treatment and, therefore, remains infected throughout the test. The remaining four groups of animals are treated with Antibiotic 20562, as 1%, 5%, 10% and 15% suspensions, respectively, the vehicle for suspension being administered on a cotton swab. At the end of the three day treatment the 1%, 5% and 10% groups are 60% cured, the 15% group is completely (100%) cured.

Candida albicans [6] = assay: MIC in vitro in Sabourraud dextrose broth against strains of Candida albicans; format: cell-based
Experimental: Antibiotic 20562 was tested in vitro in Sabourraud dextrose broth against strains of Candida albicans, the Minimum Inhibitory Concentration (MIC) being set forth in Table IV below: […]

[7] = products of Example 2 step B, precipitated after silica gel chromatography
[8] = products of Example 3 steps C and D
[9] = separated antibiotics, crystalline solids from methanol, vs standard of 1000 mcg/mg

| SMILES | Days to become negative: Culture [1] [days] | Days to become negative: Lesion [1] [days] | LD50 ([2]; oral administration) [mg/kg] | LD50 ([2]; subcutaneous administration) [mg/kg] | Assay (potency by agar diffusion) [3, 7] [µg/mg] | Assay (potency by agar diffusion) [3, 8] [µg/mg] | Assay (potency by agar diffusion) [3, 9] | PD50 (Candida albicans [4]; oral administration) [mg/kg] | PD50 (Candida albicans [4]; subcutaneous administration) [mg/kg] | other results |
| --- | --- | --- | --- | --- | --- | --- | --- | --- | --- | --- |
| CC(C)c1nc2nc(N)nc(N)c2nc1C(C)C [0/129, 2 4-diamino-6,7-diisopropylpteridine] |  |  |  |  |  |  |  |  |  | sensitivity of the organism to the vibriostatic compound (Aeromonas sp. W-10): insensitive |
| CC=C(NC(=O)CC(O)CCCCCCCCCCC)C(=O)NC1C(=O)NC(C(C)O)C(=O)NC(Cc2ccc(O)cc2)C(=O)NC(=CC)C(=O)NC(CCC(N)=O)C(=O)NCC(=O)N(C)C(C(C)O)C(=O)NC(Cc2cnc[nH]2)C(=O)OC1C (centres unmarked) [Antibiotic 20561] (X1-[X2]TTY[X2]QG[NMeT]H; ester 2-C; configuration not given here) | 4.8 | 6.3 | 1000 | > 1000 | 800 | 800 | about 800 mcg/mg | 25 | 4 |  |
| CC=C(NC(=O)CC(O)CCCCCCCCCCC)C(=O)NC1C(=O)NC(C(C)O)C(=O)NC(Cc2ccc(O)cc2)C(=O)NC(=CC)C(=O)NC(CCC(N)=O)C(=O)NCC(=O)N(C)C(C(C)OC2OC(CO)C(O)C(O)C2O)C(=O)NC(Cc2cnc[nH]2)C(=O)OC1C (centres unmarked) [Antibiotic 20562] (X1-[X2]TTY[X2]QG[NMeT](X3)H; ester 2-C; configuration not given here) | 5.8 | 9.0 | 800 | 600 | 800 | 1000 | about 1000 mcg/mg | 25 | 4 | cured at end of three day treatment ([5]; 1% suspension): 60%; cured at end of three day treatment ([5]; 5% suspension): 60%; cured at end of three day treatment ([5]; 10% suspension): 60%; cured at end of three day treatment ([5]; 15% suspension): 100%; MIC (Candida albicans [6]; Candida albicans strain 29): 0.075 µg/mL (≈ 0.0552 µM); MIC (Candida albicans [6]; Candida albicans strain Bevan): 0.075 µg/mL (≈ 0.0552 µM); MIC (Candida albicans [6]; Candida albicans strain Burke): 0.075 µg/mL (≈ 0.0552 µM); MIC (Candida albicans [6]; Candida albicans strain Collins): 0.075 µg/mL (≈ 0.0552 µM); MIC (Candida albicans [6]; Candida albicans strain Fix): 0.075 µg/mL (≈ 0.0552 µM); MIC (Candida albicans [6]; Candida albicans strain Lush): 0.075 µg/mL (≈ 0.0552 µM); MIC (Candida albicans [6]; Candida albicans strain Merkel): 0.075 µg/mL (≈ 0.0552 µM); MIC (Candida albicans [6]; Candida albicans strain Newcomb): 0.075 µg/mL (≈ 0.0552 µM); MIC (Candida albicans [6]; Candida albicans strain No. 1): 0.075 µg/mL (≈ 0.0552 µM); MIC (Candida albicans [6]; Candida albicans strain Raub): 0.075 µg/mL (≈ 0.0552 µM); MIC (Candida albicans [6]; Candida albicans strain Sperk): 0.075 µg/mL (≈ 0.0552 µM); MIC (Candida albicans [6]; Candida albicans strain Wisconsin): 0.075 µg/mL (≈ 0.0552 µM) |
